# Species on record: Rattus norvegicus
# Format: toxicity, organism-based, Sprague-Dawley
# Settings: in vivo, po, route oral GAVAGE, […]; for ABSOLUTE EOSINOPHIL / ABSOLUTE LYMPHOCYTE / ABSOLUTE MONOCYTE / ABSOLUTE SEGMENTED NEUTROPHIL / BASOPHIL / EOSINOPHIL / ERYTHROCYTE COUNT / HEMATOCRIT / HEMOGLOBIN / LEUKOCYTE COUNT / LYMPHOCYTE / MEAN CORPUSCULAR HEMOGLOBIN / MEAN CORPUSCULAR HEMOGLOBIN CONCENTRATION / MEAN CORPUSCULAR VOLUME / MONOCYTE / NEUTROPHIL / NUCLEATED RED BLOOD CELLS / PLATELET COUNT: tissue Blood; for ALANINE AMINOTRANSFERASE / ALBUMIN / ALKALINE PHOSPHATASE / ASPARTATE AMINOTRANSFERASE / BLOOD UREA NITROGEN / CARBON DIOXIDE / CHLORIDE / CHOLESTEROL / CREATINE PHOSPHOKINASE / CREATININE / GLUCOSE / LACTATE DEHYDROGENASE / LIPASE / PHOSPHORUS / POTASSIUM / SODIUM / TOTAL BILIRUBIN / TOTAL PROTEIN / URIC ACID: tissue Plasma
# [1] = 0 mg/kg, 6 h, vehicle control, dose level Control, time 0.25 day
# [2] = 0 mg/kg, 24 h, vehicle control, dose level Control, time 1 day
# [3] = 400 mg/kg, 6 h, dose level Low, time 0.25 day
# Description: DrugMatrix - Regimen: Single
smiles,measurement,setting,value
ClC(Cl)(Cl)Cl [CARBON TETRACHLORIDE],ABSOLUTE EOSINOPHIL,[1],61.17 CELLS/uL
same,ABSOLUTE LYMPHOCYTE,[1],12625.83 CELLS/uL
same,ABSOLUTE MONOCYTE,[1],417.17 CELLS/uL
same,ABSOLUTE SEGMENTED NEUTROPHIL,[1],1595.83 CELLS/uL
same,BASOPHIL,[1],0%
same,EOSINOPHIL,[1],0.33%
same,ERYTHROCYTE COUNT,[1],5.46 x10E6/uL
same,HEMATOCRIT,[1],36.02%
same,HEMOGLOBIN,[1],13.55 G/DL
same,LEUKOCYTE COUNT,[1],14.7 x10E3/uL
same,LYMPHOCYTE,[1],85.83%
same,MEAN CORPUSCULAR HEMOGLOBIN,[1],24.87 pg
same,MEAN CORPUSCULAR HEMOGLOBIN CONCENTRATION,[1],37.65 G/DL
same,MEAN CORPUSCULAR VOLUME,[1],66.03 fL
same,MONOCYTE,[1],2.67%
same,NEUTROPHIL,[1],11.17%
same,NUCLEATED RED BLOOD CELLS,[1],0 /100WBC
same,PLATELET COUNT,[1],1072.33 x10E3/uL
same,ALANINE AMINOTRANSFERASE,[1],63.33 u/L
same,ALBUMIN,[1],4.58 G/DL
same,ALKALINE PHOSPHATASE,[1],285 u/L
same,ASPARTATE AMINOTRANSFERASE,[1],116.5 u/L
same,BLOOD UREA NITROGEN,[1],9.17 mg/dL
same,CARBON DIOXIDE,[1],18.83 mmol/L
same,CHLORIDE,[1],104.5 MEQ/L
same,CHOLESTEROL,[1],68.67 mg/dL
same,CREATINE PHOSPHOKINASE,[1],421 u/L
same,CREATININE,[1],0.58 mg/dL
same,GLUCOSE,[1],160.67 mg/dL
same,LACTATE DEHYDROGENASE,[1],396 u/L
same,LIPASE,[1],10.33 u/L
same,PHOSPHORUS,[1],12.25 mg/dL
same,POTASSIUM,[1],6.42 MEQ/L
same,SODIUM,[1],142.77 MEQ/L
same,TOTAL BILIRUBIN,[1],0.25 mg/dL
same,TOTAL PROTEIN,[1],5.48 G/DL
same,URIC ACID,[1],1.65 mg/dL
same,HEMATOCRIT,"0 mg/kg, 24 h, dose level Control, time 1 day",31.9%
same,ABSOLUTE EOSINOPHIL,[2],23.83 CELLS/uL
same,ABSOLUTE LYMPHOCYTE,[2],11026.5 CELLS/uL
same,ABSOLUTE MONOCYTE,[2],98.5 CELLS/uL
same,ABSOLUTE SEGMENTED NEUTROPHIL,[2],667.83 CELLS/uL
same,BASOPHIL,[2],0%
same,EOSINOPHIL,[2],0.17%
same,ERYTHROCYTE COUNT,[2],4.92 x10E6/uL
same,HEMOGLOBIN,[2],12.6 G/DL
same,LEUKOCYTE COUNT,[2],11.82 x10E3/uL
same,LYMPHOCYTE,[2],93%
same,MEAN CORPUSCULAR HEMOGLOBIN,[2],25.7 pg
same,MEAN CORPUSCULAR HEMOGLOBIN CONCENTRATION,[2],39.57 G/DL
same,MEAN CORPUSCULAR VOLUME,[2],64.97 fL
same,MONOCYTE,[2],0.83%
same,NEUTROPHIL,[2],6%
same,NUCLEATED RED BLOOD CELLS,[2],0 /100WBC
same,PLATELET COUNT,[2],872.33 x10E3/uL
same,ALANINE AMINOTRANSFERASE,[2],82.67 u/L
same,ALBUMIN,[2],4.17 G/DL
same,ALKALINE PHOSPHATASE,[2],321.83 u/L
same,ASPARTATE AMINOTRANSFERASE,[2],99.5 u/L
same,BLOOD UREA NITROGEN,[2],13.33 mg/dL
same,CARBON DIOXIDE,[2],33.67 mmol/L
same,CHLORIDE,[2],99.83 MEQ/L
same,CHOLESTEROL,[2],64 mg/dL
same,CREATINE PHOSPHOKINASE,[2],275.33 u/L
same,CREATININE,[2],0.21 mg/dL
same,GLUCOSE,[2],146.17 mg/dL
same,LACTATE DEHYDROGENASE,[2],101 u/L
same,LIPASE,[2],9.83 u/L
same,PHOSPHORUS,[2],8.82 mg/dL
same,POTASSIUM,[2],5.51 MEQ/L
same,SODIUM,[2],143.2 MEQ/L
same,TOTAL BILIRUBIN,[2],0.18 mg/dL
same,TOTAL PROTEIN,[2],5.83 G/DL
same,URIC ACID,[2],0.63 mg/dL
same,ABSOLUTE EOSINOPHIL,[3],44 CELLS/uL
same,ABSOLUTE LYMPHOCYTE,[3],11229.17 CELLS/uL
same,ABSOLUTE MONOCYTE,[3],321.83 CELLS/uL
same,ABSOLUTE SEGMENTED NEUTROPHIL,[3],3421.67 CELLS/uL
same,BASOPHIL,[3],0%
same,EOSINOPHIL,[3],0.33%
same,ERYTHROCYTE COUNT,[3],6.19 x10E6/uL
same,HEMATOCRIT,[3],40.97%
same,HEMOGLOBIN,[3],15.07 G/DL
same,LEUKOCYTE COUNT,[3],15.02 x10E3/uL
same,LYMPHOCYTE,[3],73%
same,MEAN CORPUSCULAR HEMOGLOBIN,[3],24.45 pg
same,MEAN CORPUSCULAR HEMOGLOBIN CONCENTRATION,[3],36.95 G/DL
same,MEAN CORPUSCULAR VOLUME,[3],66.17 fL
same,MONOCYTE,[3],2.17%
same,NEUTROPHIL,[3],24.5%
same,NUCLEATED RED BLOOD CELLS,[3],0 /100WBC
same,PLATELET COUNT,[3],1278.5 x10E3/uL
same,ALANINE AMINOTRANSFERASE,[3],102.5 u/L
same,ALBUMIN,[3],4.68 G/DL
same,ALKALINE PHOSPHATASE,[3],305.83 u/L
same,ASPARTATE AMINOTRANSFERASE,[3],279.83 u/L
same,BLOOD UREA NITROGEN,[3],16.33 mg/dL
same,CARBON DIOXIDE,[3],16.33 mmol/L
same,CHLORIDE,[3],100.33 MEQ/L
same,CHOLESTEROL,[3],70 mg/dL
same,CREATINE PHOSPHOKINASE,[3],845.5 u/L
same,CREATININE,[3],0.19 mg/dL
same,GLUCOSE,[3],129.67 mg/dL
same,LACTATE DEHYDROGENASE,[3],1003.17 u/L
same,LIPASE,[3],9 u/L
same,PHOSPHORUS,[3],15.78 mg/dL
same,POTASSIUM,[3],7.57 MEQ/L
same,SODIUM,[3],142.47 MEQ/L
same,TOTAL BILIRUBIN,[3],0.3 mg/dL
same,TOTAL PROTEIN,[3],6.17 G/DL
same,URIC ACID,[3],3.2 mg/dL
